In the experiment the test system is nude mice, A549 intrarenal xenograft, tumor weight change. Put plainly: NCI In Vivo Anticancer Drug Screen. Data for tumor model A549 Human Adenocarcinoma of Lung with characteristics of Type II Alveolar Epithelial cells (intrarenal inoculation) in NU/NU BALB/C (nude) mice. The settings on record: endpoint: mean tumor weight change, schedule: Q04DX003 (ip), higher = larger tumour. In outline: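 Activity is expressed as T/C: the treated-group value over the vehicle-treated control value. The measure was survival or tumor size in mice carrying transplantable tumors.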

[1] abbreviates: dose: 25.0 mg/kg/injection, vehicle: saline.
The mark [2] stands for this setting: dose: 100.0 mg/kg/injection, vehicle: saline.
The mark [3] stands for this setting: dose: 37.5 mg/kg/injection, vehicle: water.
Setting [4] is: dose: 75.0 mg/kg/injection, vehicle: water.
Setting [5] is: dose: 50.0 mg/kg/injection, vehicle: saline with Tween-80.
Setting [6] is: dose: 200.0 mg/kg/injection, vehicle: saline with Tween-80.
Where [7] appears, read: dose: 100.0 mg/kg/injection, vehicle: saline with Tween-80.
The mark [8] stands for this setting: dose: 150.0 mg/kg/injection, vehicle: distilled water + Tween-80 + alcohol.
[9] abbreviates: dose: 25.0 mg/kg/injection, vehicle: saline with Tween-80.
[10] abbreviates: dose: 37.5 mg/kg/injection, vehicle: saline with Tween-80.
Where [11] appears, read: dose: 50.0 mg/kg/injection, vehicle: saline.
Setting [12] is: dose: 400.0 mg/kg/injection, vehicle: saline.
Where [13] appears, read: dose: 200.0 mg/kg/injection, vehicle: saline.

Several values for one entry are separate records, joined by “and”; a condition that tells them apart may be missing. Equal values may be shown once. Results filed as inconclusive are left out.

Take `COc1cc(C2=NCCc3cc4c(cc32)OCO4)cc(OC)c1OC`: the T/C runs as follows: (dose: 37.5 mg/kg/injection, vehicle: saline + alcohol) 73 % of control; (dose: 75.0 mg/kg/injection, vehicle: saline + alcohol) 49 % of control; (dose: 150.0 mg/kg/injection, vehicle: saline + alcohol) 31 % of control.
Regarding `O=c1[nH]cc(F)c(=O)[nH]1`, the T/C under setting [1] is 207 % of control and the T/C under setting [2] was 28 % of control.
As to `Oc1cccc2ccccc12`, the T/C is 102 % of control under setting [3] and 54 % of control under setting [4].
`Cc1ccc(C(=Nc2ccccc2)N=P(c2ccccc2)(c2ccccc2)c2ccccc2)cc1`: the T/C is, setting by setting: under setting [5], 90 % of control; under setting [6], 82 % of control.
Consider `ClC1(Cl)Cc2ccccc21`, for which the T/C under setting [5] is 119 % of control, the T/C under setting [7] was 57 % of control and the T/C under setting [6] is 119 % of control.
For the molecule `S=C1CCCCN1`, the T/C reads like this: (dose: 75.0 mg/kg/injection, vehicle: distilled water + Tween-80 + alcohol) 86 % of control; under setting [8], 69 % of control.
For `COc1ccc(C(C)c2cc3c(cc2OC)OCO3)cc1` (stereo not given), the T/C reads like this: (dose: 12.5 mg/kg/injection, vehicle: saline with Tween-80) 17 % of control; under setting [9], 18 % of control and 43 % of control; under setting [5], 33 % of control.
For the molecule `Cc1c2ccccc2c(C)c2c1cc(C(=O)O)c1ccccc12`, the T/C is 150 % of control under setting [10]; 113 % of control (dose: 150.0 mg/kg/injection, vehicle: saline with Tween-80); 85 % of control (dose: 300.0 mg/kg/injection, vehicle: saline with Tween-80).
Regarding `[Cl][Pt][Cl].[NH-]C(CO)C(=O)O` (stereo not given), the T/C by setting is: under setting [3], 93 % of control; under setting [4], 247 % of control; (dose: 150.0 mg/kg/injection, vehicle: water) 63 % of control.
As to `[NH-]C(CCC(N)=O)C(=O)O.[NH-]C(CCC(N)=O)C(=O)O.[Zn+2]` (stereo not given), the T/C is 83 % of control under setting [9], 29 % of control under setting [5] and 54 % of control under setting [7].
In the case of `c1ccc([Te][Te]c2ccccc2)cc1`, the T/C (dose: 9.38 mg/kg/injection, vehicle: saline with Tween-80) is 71 % of control; the T/C (dose: 18.75 mg/kg/injection, vehicle: saline with Tween-80) is 59 % of control; the T/C under setting [10] is 122 % of control.
In the case of `COc1cccc2c1C(=O)c1c(O)c3c(c(O)c1C2=O)C[C@](O)(C(=O)CO)CC3OC1CC(N)C(OC2CCCCO2)C(C)O1` (stereo not given in full), the T/C is 35 % of control (dose: 1.88 mg/kg/injection, vehicle: water); 74 % of control (dose: 3.75 mg/kg/injection, vehicle: water); 28 % of control (dose: 7.5 mg/kg/injection, vehicle: water); 4 % of control (dose: 15.0 mg/kg/injection, vehicle: water).
For the molecule `O=C1CN(CCN2CC(=O)N(CN3CCOCC3)C(=O)C2)CC(=O)N1CN1CCOCC1`, the T/C was 51 % of control under setting [10] and 60 % of control (dose: 75.0 mg/kg/injection, vehicle: saline with Tween-80).
`O=C(/C=C/c1cccnc1)/C=C/c1cccnc1`: the T/C by setting is: (dose: 12.5 mg/kg/injection, vehicle: Klucel (hydroxypropylcellulose) (HPC)) 91 % of control; (dose: 100.0 mg/kg/injection, vehicle: Klucel (hydroxypropylcellulose) (HPC)) 54 % of control.
Take `CN(C)c1ccc2c(SCC(=O)OCC(=O)[C@@]3(O)CC[C@H]4[C@@H]5CCC6=CC(=O)C=C[C@]6(C)[C@H]5C(=O)C[C@@]43C)c3ccc(N(C)C)cc3nc2c1`: the T/C was 52 % of control (dose: 75.0 mg/kg/injection, vehicle: Klucel (hydroxypropylcellulose) (HPC)); 62 % of control (dose: 150.0 mg/kg/injection, vehicle: Klucel (hydroxypropylcellulose) (HPC)); 96 % of control (dose: 300.0 mg/kg/injection, vehicle: Klucel (hydroxypropylcellulose) (HPC)).
For the molecule `CC1(C)Nc2cc3c(cc2-n2cccc21)oc1ccccc13`, the T/C is 77 % of control (dose: 150.0 mg/kg/injection, vehicle: saline); 98 % of control (dose: 300.0 mg/kg/injection, vehicle: saline); 66 % of control (dose: 600.0 mg/kg/injection, vehicle: saline); 57 % of control (dose: 1200.0 mg/kg/injection, vehicle: saline).
Consider `CC(CNC(=O)C12CC3CC(CC(C3)C1)C2)NC(=O)C12CC3CC(CC(C3)C1)C2` (stereo not given), for which the T/C (dose: 300.0 mg/kg/injection, vehicle: DMSO) is 106 % of control.
As for `COc1ccc2c(c1)-c1nn(CCCN(C)C)c3ccc([N+](=O)[O-])c(c13)N2`, the T/C (dose: 12.5 mg/kg/injection, vehicle: water) is 61 % of control; the T/C (dose: 25.0 mg/kg/injection, vehicle: water) is 81 % of control; the T/C (dose: 50.0 mg/kg/injection, vehicle: water) was 14 % of control; the T/C (dose: 100.0 mg/kg/injection, vehicle: water) is 27 % of control.
Turning to `O=C1C=C(N2CC2)C(=O)C(N2CC2)=C1N1CC1`, the T/C runs as follows: (dose: 100.0 micrograms/kg/injection, vehicle: saline) 25 % of control and 29 % of control; (dose: 144.0 micrograms/kg/injection, vehicle: saline + alcohol) -27 % of control; (dose: 240.0 micrograms/kg/injection, vehicle: saline + alcohol) -14 % of control; (dose: 400.0 micrograms/kg/injection, vehicle: saline) 6 % of control.
`O=C1CN(CO)C(=O)N1CO`: the T/C was 172 % of control under setting [11] and 120 % of control under setting [12].
On to `CC1=C[P+](c2ccccc2)(c2ccccc2)C=C(c2ccccc2)O1`, for which the T/C runs as follows: (dose: 1.0 mg/kg/injection, vehicle: suspension in saline) 94 % of control; (dose: 2.0 mg/kg/injection, vehicle: suspension in saline) 89 % of control; (dose: 8.0 mg/kg/injection, vehicle: suspension in saline) 80 % of control.
Turning to `CN=NN(C)C(=O)NC`, the T/C reads like this: under setting [1], 37 % of control; (dose: 43.2 mg/kg/injection, vehicle: saline) 27 % of control; under setting [11], 72 % of control; (dose: 72.0 mg/kg/injection, vehicle: saline) 28 % of control; under setting [2], 8 % of control; (dose: 120.0 mg/kg/injection, vehicle: saline) 8 % of control. Under setting [13], the T/C is -34 % of control and -27 % of control.
For `CC(O)CCC(=O)c1ccoc1` (stereo not given), the T/C reads like this: (dose: 24.0 mg/kg/injection, vehicle: saline) 186 % of control; (dose: 32.0 mg/kg/injection, vehicle: saline) 82 % of control.
As to `Cc1nc(C(Cl)(Cl)Cl)[nH]c(=O)c1SCCO`, the T/C is 31 % of control under setting [8]; 50 % of control (dose: 150.0 mg/kg/injection, vehicle: distilled water + alcohol); 181 % of control (dose: 300.0 mg/kg/injection, vehicle: distilled water + Tween-80 + alcohol); 26 % of control (dose: 300.0 mg/kg/injection, vehicle: distilled water + alcohol); 2 % of control (dose: 600.0 mg/kg/injection, vehicle: distilled water + alcohol).
Turning to `CC#CCOCC(O)CCl` (stereo not given), the T/C was 104 % of control under setting [2], 90 % of control under setting [13] and 111 % of control under setting [12].

For the origin of these results see PubChem BioAssay AID278 (DTP/NCI, 2004).
